Measured values reported in patent US20140314697A1, “Method for Inhibiting Inflammation and Reducing Melanophilin Expression with Glycine Derivatives And the Composition Thereof” (CORUM INC., priority 2013, published 2014).
Square brackets hold non-standard residues; d marks the D form. Peptide text beside a SMILES is read from it. Sar = CNCC(=O)O

Columns and labels:
[1] = system: Human IL-8 secretion, Normal Human Epidermal Keratinocytes (NHEK); assay: Human IL-8 production in UVB-irradiated NHEK (ELISA); format: cell-based; details: Table 10, 0.20%; for Human IL-8 Content, Average: 40 mJ/cm2 UVB; for Human IL-8 Content, Entry 2: passage 2 + 4, 40 mJ/cm2 UVB; for Human IL-8 Content, Entry 3: passage 2 + 5, 40 mJ/cm2 UVB; for Human IL-8 Content, Entry 4: passage 2 + 6, 40 mJ/cm2 UVB; for Human IL-8 Content, Entry 1: passage 2 + 3, 40 mJ/cm2 UVB
Experimental: (§1) Normal Human Epidermal Keratinocytes (NHEK) (PromoCell No. C-12008);
(§2) Positive Control: 40 mJ/cm^2 UVB,
(§3) Negative Control: No UVB irradiation;
(§4) a. Rinse the confluent NHEK cells with sterile D-PBS then trypsinize all cells and perform cell counting.
(§5) b. Dilute the cell density to 4˜8E+04/mL and seed 0.5 mL cell liquid (equals to 2˜4E+04 cells) each well in 24 well plate.
(§6) c. Incubate NHEK cells at 37° C., 5% CO2 until subconfluence.
(§7) d. Prepared dosing solution of testing material in Complete Medium: 0.4%, 0.2%, 0.1%, 0.05%.
(§8) e. Rinse the NHEK cells with sterile D-PBS and discard rinse buffer. Add 400 μL of controls and testing materials in different concentrations into NHEK cells in 24 well plates.
(§9) f. Pre-incubate NHEK cells with testing material at 37° C., 5% CO2 for about 6 hours.
(§10) g. After pre-incubating for about 6 hours, wash the NHEK cells with sterile D-PBS for twice then add […] sterile D-PBS for UVB irradiation.
(§11) h. UVB intensity is about 2300 μW/cm^2 and UVB energy is about 40 mJ/cm^2.
(§12) i. After UVB irradiation, discard sterile D-PBS and wash again. Add 400 μL of the same dosing solution in to each wells.
(§13) j. Post-incubate at 37° C., 5% CO2 for about 18 hours.
(§14) k. After post-incubating for 18 hours, collect the supernatant of controls and testing materials.
(§15) l. Determine the IL-6/IL-8 content of the supernatant by R&D ELISA kit as mentioned previously.
(§16) Normal Human Epidermal Keratinocytes (NHEK) were treated by the above-mentioned glycine derivatives for evaluating their anti-inflammatory effect on keratinocytes in this example.

[2] = system: Human IL-6 secretion, Normal Human Epidermal Keratinocytes (NHEK); assay: Human IL-6 production in UVB-irradiated NHEK (ELISA); format: cell-based; details: Table 9, 0.20%, Positive Control 100%; for Human IL-6 Content, Average: 40 mJ/cm^2 UVB; for Human IL-6 Content, Entry 1: passage 2 + 2, 40 mJ/cm^2 UVB; for Human IL-6 Content, Entry 2 / Human IL-6 Content, Entry 3: passage 2 + 3, 40 mJ/cm^2 UVB
Experimental: as §1, §2, §3, §4, §5, §6, §7, §8, §9, §10, §11, §12, §13, §14, §15, §16

| Compound | Human IL-8 Content, Average [1] [%] | Human IL-8 Content, Entry 2 [1] [%] | Human IL-8 Content, Entry 3 [1] [%] | Human IL-8 Content, Entry 4 [1] [%] | Human IL-6 Content, Average [2] [%] | Human IL-6 Content, Entry 1 [2] [%] | Human IL-6 Content, Entry 2 [2] [%] | Human IL-6 Content, Entry 3 [2] [%] | Human IL-8 Content, Entry 1 [1] [%] |
| --- | --- | --- | --- | --- | --- | --- | --- | --- | --- |
| CC(=O)NCC(=O)NCC(=O)O [Ac-Gly-Gly, (2-acetylamino-acetylamino)-acetic acid] | 59 | 68 | 54 | 53 | 20 | 12 | 16 | 33 |  |
| CC(=O)NCC(=O)N(C)CC(=O)O [Ac-Gly-Sar, [(2-Acetylamino-acetyl)-methyl-amino]-acetic acid] (Ac-Gly-[Sar]-OH) | 76 | 70 | 74 | 88 | 14 | 14 | 21 | 7 | 73 |
| CC(=O)NCC(=O)NCCCC(=O)O [Ac-Gly-GABA, 4-(2-Acetylamino-acetylamino)-butyric acid] | 70 | 70 | 64 | 87 | 14 | 11 | 25 | 6 | 59 |
